Where “and” joins values, the source holds several entries; their conditions need not be identical. Identical values can stand only once. Like-named read-outs stand apart in the source and are kept apart here. Marks after values point to notes of the source that are not given here.
Key:
[1] = target: T1, human GPR17 (Homo sapiens, UniProt Q13304); assay: [35S]GTPγS binding assay; format: biochemical
T1 construct: HA; expressed in transfected cells
Procedure: [^35S]GTPγS binding assays were carried out as previously described. Briefly, control and astrocytoma 1321N1 cells stably transfected with human pcDNA3.1 (control cells) and human HA-tag GPR17 were homogenized in 5 mM Tris/HCl and 2 mM EDTA (pH 7.4) and centrifuged at 48,000g for 15 min at 4°C. The resulting pellets were washed in 50 mM Tris/HCl and 10 mM MgCl2 (pH 7.4). After protein dosage, aliquots of cell membranes were incubated with increasing concentrations of each investigated ligand (1 pM–10 μM) and GTPγS binding to activated G-proteins was quantified as previously described. Compounds were purchased from two external providers, i.e., Ambinter (Ambinter c/o Greenpharma, Orléans, France http://www.ambinter.com/) and Asinex (http://www.asinex.com/).
For analysis and graphic presentation of [^35S]GTPγS binding data, a nonlinear multipurpose curve fitting computer program (Graph-Pad Prism) was used. All data are presented as the mean ± SEM of three different experiments.
The selected 15 molecules were evaluated in our in-house [^35S]GTPγS functional assay in membranes from cells transfected with human GPR17. […] Moreover, this assay has been already successfully used in the past to measure the ability of both endogenous and novel synthetic compounds to activate GPR17 [25, 31]. All tested molecules were able to potently activate GPR17 with nanomolar/sub-nanomolar affinities. Concentration-response curves obtained for each selected compound are reported in S4 Fig.

[2] = target: T2, ADR2B (Homo sapiens, UniProt P18089); assay: Binding assay ADR2B; details: 100 nM
T2 construct: Eurofins Cerep (external service)
T2 sequence (P18089 1-450): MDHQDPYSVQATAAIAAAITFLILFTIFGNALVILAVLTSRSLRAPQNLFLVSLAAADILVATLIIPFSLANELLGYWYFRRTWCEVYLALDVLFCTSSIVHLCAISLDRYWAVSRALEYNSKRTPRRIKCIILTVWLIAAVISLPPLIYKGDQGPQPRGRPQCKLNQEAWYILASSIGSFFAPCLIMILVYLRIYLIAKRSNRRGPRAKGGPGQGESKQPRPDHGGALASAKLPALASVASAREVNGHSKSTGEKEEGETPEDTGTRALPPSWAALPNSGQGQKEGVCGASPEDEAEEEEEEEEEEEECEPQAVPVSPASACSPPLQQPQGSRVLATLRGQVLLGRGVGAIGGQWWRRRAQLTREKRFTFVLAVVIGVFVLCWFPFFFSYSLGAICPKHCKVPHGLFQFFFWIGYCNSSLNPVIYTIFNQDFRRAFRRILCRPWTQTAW

[3] = target: T3, CCR1 (Homo sapiens, UniProt P32246); assay: Binding assay CCR1; details: 100 nM
T3 construct: Eurofins Cerep (external service)
T3 sequence (P32246 1-355): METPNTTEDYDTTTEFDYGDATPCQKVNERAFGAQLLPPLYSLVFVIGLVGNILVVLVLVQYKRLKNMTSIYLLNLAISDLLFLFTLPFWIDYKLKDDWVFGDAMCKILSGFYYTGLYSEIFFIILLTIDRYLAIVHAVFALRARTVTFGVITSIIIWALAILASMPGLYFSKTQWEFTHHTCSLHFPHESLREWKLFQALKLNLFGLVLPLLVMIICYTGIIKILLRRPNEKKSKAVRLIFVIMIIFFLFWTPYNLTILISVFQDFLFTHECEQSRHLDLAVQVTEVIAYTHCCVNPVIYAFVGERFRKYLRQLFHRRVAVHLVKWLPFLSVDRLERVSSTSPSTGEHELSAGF

[4] = target: T4, M2 (Homo sapiens, UniProt P08172); assay: Binding assay M2; details: 100 nM
T4 construct: Eurofins Cerep (external service)
T4 sequence (P08172 1-466): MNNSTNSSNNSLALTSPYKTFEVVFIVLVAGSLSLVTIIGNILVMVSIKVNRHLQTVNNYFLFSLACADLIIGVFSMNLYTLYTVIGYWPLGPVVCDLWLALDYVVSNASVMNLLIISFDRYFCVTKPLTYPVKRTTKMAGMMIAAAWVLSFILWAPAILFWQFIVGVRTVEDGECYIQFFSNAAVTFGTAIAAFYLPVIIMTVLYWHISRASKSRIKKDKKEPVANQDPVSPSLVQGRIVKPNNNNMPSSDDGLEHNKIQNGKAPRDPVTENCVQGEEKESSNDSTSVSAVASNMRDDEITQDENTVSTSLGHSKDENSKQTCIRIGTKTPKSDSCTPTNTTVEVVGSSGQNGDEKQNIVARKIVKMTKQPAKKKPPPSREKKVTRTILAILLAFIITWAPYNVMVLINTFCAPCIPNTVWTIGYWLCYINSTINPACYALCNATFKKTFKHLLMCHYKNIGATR

[5] = target: CCR5 (Homo sapiens, UniProt P51681); assay: Cellular functional assay CCR5
[6] = target: CXCR4 (Homo sapiens, UniProt P61073); assay: Cellular functional assay CXCR4
[7] = mean of 2, read-out: % Of control specific binding, Mean
[8] = read-out: % Inhibition of control specific binding
[9] = single replicates 1 and 2, 0.1 µM
[10] = single replicates 1 and 2, read-out: % Of control specific binding
[11] = antagonist effect, 100 nM, single replicates 1st and 2nd, 0.1 µM

CCR5, sequence (P51681 whole entry): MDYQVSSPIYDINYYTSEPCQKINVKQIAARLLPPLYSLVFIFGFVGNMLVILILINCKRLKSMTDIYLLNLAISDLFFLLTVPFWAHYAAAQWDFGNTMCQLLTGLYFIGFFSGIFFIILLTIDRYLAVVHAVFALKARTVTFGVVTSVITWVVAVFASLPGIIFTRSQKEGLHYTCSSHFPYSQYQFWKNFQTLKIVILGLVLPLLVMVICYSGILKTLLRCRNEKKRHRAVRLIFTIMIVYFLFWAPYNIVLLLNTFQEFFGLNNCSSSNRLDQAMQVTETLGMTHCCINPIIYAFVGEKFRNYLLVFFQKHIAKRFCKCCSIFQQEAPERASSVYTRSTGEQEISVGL
T1 sequence (Q13304 29-367): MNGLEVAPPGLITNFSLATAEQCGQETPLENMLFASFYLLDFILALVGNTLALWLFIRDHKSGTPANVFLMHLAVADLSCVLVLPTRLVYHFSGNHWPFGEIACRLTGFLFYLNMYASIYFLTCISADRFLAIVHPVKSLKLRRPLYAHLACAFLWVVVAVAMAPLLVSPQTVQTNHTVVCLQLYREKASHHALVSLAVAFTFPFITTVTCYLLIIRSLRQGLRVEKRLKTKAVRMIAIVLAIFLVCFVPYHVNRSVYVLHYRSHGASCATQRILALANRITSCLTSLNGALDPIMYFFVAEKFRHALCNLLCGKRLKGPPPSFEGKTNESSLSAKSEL
CXCR4, sequence (P61073 whole entry): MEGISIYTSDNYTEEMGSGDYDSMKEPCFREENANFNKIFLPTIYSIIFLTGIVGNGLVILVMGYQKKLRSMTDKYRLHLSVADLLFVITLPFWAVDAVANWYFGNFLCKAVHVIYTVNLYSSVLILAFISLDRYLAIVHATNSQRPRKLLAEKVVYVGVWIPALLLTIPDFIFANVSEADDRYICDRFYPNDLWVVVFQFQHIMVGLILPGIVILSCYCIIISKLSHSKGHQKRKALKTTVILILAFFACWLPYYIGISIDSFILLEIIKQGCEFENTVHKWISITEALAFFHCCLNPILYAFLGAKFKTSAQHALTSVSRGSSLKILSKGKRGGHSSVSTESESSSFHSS

- EC50 ([1]; membranes of 1321N1 cells transfected with human GPR17, mean ± SEM of 3 experiments): 640 ± 120 pM
- % Emax (ratio vs Emax of the standard) ([1]; standard LTD4 50 nM set to 100% († compounds)): 88.5 ^** %
- Emax (% vs basal) ([1]; vs basal, mean ± SEM): 127.8 ± 3.0%
- remaining activity at 0.1 µM [2, 7]: 99.9%
- inhibition at 0.1 µM [2, 8]: 0%
- % Of control specific binding [2, 9]: 95.6%
- remaining activity at 0.1 µM [2, 10]: 104%
- remaining activity at 0.1 µM [3, 7]: 108%
- inhibition at 0.1 µM [3, 8]: -8%
- % Of control specific binding [3, 9]: 109%
- remaining activity at 0.1 µM [3, 10]: 108%
- remaining activity at 0.1 µM [4, 7]: 108%
- inhibition at 0.1 µM [4, 8]: -8%
- % Of control specific binding [4, 9]: 111.1%
- remaining activity at 0.1 µM [4, 10]: 104%
- inhibition at 0.1 µM ([5]; CCR5, read-out: % Inhibition of control agonist response): -1.5%
- activity at 0.1 µM ([5]; CCR5, read-out: Agonist Response (% of Control), Mean, antagonist effect, 100 nM, mean of 2): 126%
- Agonist Response (% of Control) [5, 11]: 140.8% and 112.0%
- Agonist Response (% of Control) [6, 11]: 70.8%
- inhibition at 0.1 µM ([6]; read-out: % Inhibition of control agonist response): 4.4%
- activity at 0.1 µM ([6]; read-out: Agonist Response (% of Control), Mean, antagonist effect, 100 nM, mean of 2): 78.2%
- activity at 0.1 µM ([6]; read-out: Agonist Response (% of Control), antagonist effect, 100 nM, single replicates 1st and 2nd): 85.6%
Compound: Cc1ccc(-c2nnc(SCC(=O)Nc3nccs3)[nH]2)cc1 [Compound 9]
